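Growth conditions: 96-well plates. Treatment: test compound, 48 hours, 5 concentrations. Analysis: linear interpolation between bracketing concentrations; unreached endpoints set to highest concentration. Here, GI50 denotes the concentration required for 50% inhibition of growth. At the TGI there is no net growth.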
Experiments:
Assay in all cases: NCI tumour cell line growth inhibition, 48 h
NCI-H460 lung = test system: NCI-H460 lung
T-47D breast = test system: T-47D breast
IGROV1 ovarian = test system: IGROV1 ovarian
MCF7 breast = test system: MCF7 breast
CCRF-CEM leukemia = test system: CCRF-CEM leukemia
RXF 393 renal = test system: RXF 393 renal
SK-OV-3 ovarian = test system: SK-OV-3 ovarian
HCC-2998 colon = test system: HCC-2998 colon
HOP-62 NSCLC = test system: HOP-62 NSCLC
BT-549 breast = test system: BT-549 breast
ACHN renal = test system: ACHN renal
MOLT-4 leukemia = test system: MOLT-4 leukemia
M14 melanoma = test system: M14 melanoma
NCI-H23 lung = test system: NCI-H23 lung
PC-3 prostate = test system: PC-3 prostate
KM12 colon = test system: KM12 colon
TK-10 renal = test system: TK-10 renal
A498 renal = test system: A498 renal
OVCAR-4 ovarian = test system: OVCAR-4 ovarian
NCI-H226 lung = test system: NCI-H226 lung
DU-145 prostate = test system: DU-145 prostate
COLO 205 colon = test system: COLO 205 colon
OVCAR-3 ovarian = test system: OVCAR-3 ovarian
NCI/ADR-RES ovarian = test system: NCI/ADR-RES ovarian
HS 578T breast = test system: HS 578T breast
UACC-62 melanoma = test system: UACC-62 melanoma
MALME-3M melanoma = test system: MALME-3M melanoma
OVCAR-8 ovarian = test system: OVCAR-8 ovarian
HL-60(TB) leukemia = test system: HL-60(TB) leukemia
LOX IMVI melanoma = test system: LOX IMVI melanoma
SF-539 CNS = test system: SF-539 CNS
SN12C renal = test system: SN12C renal
UO-31 renal = test system: UO-31 renal
HOP-92 NSCLC = test system: HOP-92 NSCLC
SW-620 colon = test system: SW-620 colon
MDA-MB-231 breast = test system: MDA-MB-231 breast
NCI-H522 lung = test system: NCI-H522 lung
SF-295 CNS = test system: SF-295 CNS
RPMI-8226 leukemia = test system: RPMI-8226 leukemia
SNB-19 CNS = test system: SNB-19 CNS
OVCAR-5 ovarian = test system: OVCAR-5 ovarian
A549 NSCLC = test system: A549 NSCLC
CAKI-1 renal = test system: CAKI-1 renal
EKVX NSCLC = test system: EKVX NSCLC
HT29 colon = test system: HT29 colon
SF-268 CNS = test system: SF-268 CNS
SK-MEL-2 melanoma = test system: SK-MEL-2 melanoma
786-0 renal = test system: 786-0 renal
SNB-75 CNS = test system: SNB-75 CNS
MDA-MB-435 = test system: MDA-MB-435
UACC-257 melanoma = test system: UACC-257 melanoma
HCT-116 colon = test system: HCT-116 colon
SK-MEL-5 melanoma = test system: SK-MEL-5 melanoma
HCT-15 colon = test system: HCT-15 colon
K-562 leukemia = test system: K-562 leukemia
U251 CNS = test system: U251 CNS
SR leukemia = test system: SR leukemia

## COc1ccc(C(O)c2cc3c(N)c(C(=O)Nc4cccc5ccccc45)sc3nc2C)cc1 (stereo not given)
NCI-H460 lung
  GI50: 332 nM
  TGI: 5930 nM
T-47D breast
  GI50: > 100000 nM
  TGI: > 100000 nM
IGROV1 ovarian
  GI50: 574 nM
  TGI: > 100000 nM
MCF7 breast
  GI50: 324 nM
  TGI: > 90900 nM
CCRF-CEM leukemia
  GI50: 378 nM
  TGI: > 100000 nM
RXF 393 renal
  GI50: 3230 nM
  TGI: > 100000 nM
SK-OV-3 ovarian
  GI50: 643 nM
  TGI: > 100000 nM
HCC-2998 colon
  GI50: 475 nM
  TGI: > 54000 nM
HOP-62 NSCLC
  GI50: 1270 nM
  TGI: > 100000 nM
BT-549 breast
  GI50: 385 nM
ACHN renal
  GI50: 550 nM
  TGI: > 55600 nM
MOLT-4 leukemia
  GI50: 399 nM
  TGI: > 33200 nM
M14 melanoma
  GI50: 307 nM
  TGI: > 37700 nM
NCI-H23 lung
  GI50: 562 nM
  TGI: > 100000 nM
PC-3 prostate
  GI50: 470 nM
  TGI: > 100000 nM
KM12 colon
  GI50: 328 nM
TK-10 renal
  TGI: > 100000 nM
A498 renal
  GI50: 200 nM
  TGI: 676 nM
OVCAR-4 ovarian
  GI50: 1580 nM
  TGI: > 100000 nM
NCI-H226 lung
  GI50: 416 nM
  TGI: > 88000 nM
DU-145 prostate
  GI50: 348 nM
  TGI: 3120 nM
COLO 205 colon
  GI50: 457 nM
  TGI: > 33100 nM
OVCAR-3 ovarian
  GI50: 2530 nM
  TGI: 7500 nM
NCI/ADR-RES ovarian
  GI50: 307 nM
  TGI: > 50500 nM
HS 578T breast
  GI50: 319 nM
  TGI: > 100000 nM
UACC-62 melanoma
  GI50: 627 nM
  TGI: > 53200 nM
MALME-3M melanoma
  GI50: 544 nM
  TGI: > 60800 nM
OVCAR-8 ovarian
  GI50: 373 nM
  TGI: > 100000 nM
HL-60(TB) leukemia
  GI50: 254 nM
  TGI: 652 nM
LOX IMVI melanoma
  GI50: 444 nM
  TGI: > 39900 nM
SF-539 CNS
  GI50: 25 nM
  TGI: 69.8 nM
SN12C renal
  GI50: 629 nM
  TGI: > 46800 nM
UO-31 renal
  GI50: 622 nM
  TGI: > 75400 nM
HOP-92 NSCLC
  GI50: 911 nM
  TGI: > 27500 nM
SW-620 colon
  GI50: 284 nM
  TGI: > 100000 nM
MDA-MB-231 breast
  GI50: 393 nM
NCI-H522 lung
  GI50: 157 nM
SF-295 CNS
  GI50: 3400 nM
  TGI: > 100000 nM
RPMI-8226 leukemia
  GI50: 4170 nM
  TGI: > 100000 nM
SNB-19 CNS
  GI50: 469 nM
  TGI: > 100000 nM
OVCAR-5 ovarian
  GI50: 493 nM
  TGI: > 100000 nM
A549 NSCLC
  GI50: 381 nM
  TGI: > 100000 nM
CAKI-1 renal
  GI50: 352 nM
  TGI: > 100000 nM
EKVX NSCLC
  GI50: 486 nM
  TGI: > 100000 nM
HT29 colon
  GI50: 350 nM
SF-268 CNS
  GI50: 615 nM
  TGI: > 100000 nM
SK-MEL-2 melanoma
  GI50: 811 nM
  TGI: > 43200 nM
786-0 renal
  GI50: 499 nM
SNB-75 CNS
  GI50: 390 nM
  TGI: > 100000 nM
MDA-MB-435
  GI50: 127 nM
  TGI: 415 nM
UACC-257 melanoma
  TGI: > 32500 nM
HCT-116 colon
  GI50: 318 nM
  TGI: > 64000 nM
SK-MEL-5 melanoma
  GI50: 327 nM
  TGI: 1250 nM
HCT-15 colon
  GI50: 326 nM
  TGI: > 48700 nM
K-562 leukemia
  GI50: 314 nM
  TGI: > 53900 nM
U251 CNS
  GI50: 372 nM
  TGI: > 42500 nM
SR leukemia
  GI50: 141 nM

Source: PubChem BioAssay (NCI)
